Experimental data from article PMC8733726, “Dioctanoyl Ultrashort Tetrabasic β-Peptides Sensitize Multidrug-Resistant Gram-Negative Bacteria to Novobiocin and Rifampicin” (Frontiers in Microbiology, 2021).
≈ marks a conversion by molar mass, not a printed value. Like-named read-outs stand apart in the source and are kept apart here.

How the values were obtained:
[1] = test system: MDR P. aeruginosa clinical isolates; assay: Resistance phenotype (MICs of antibiotics) of MDR clinical isolates; assay type: cell-based, Pseudomonas aeruginosa; details: Pseudomonas aeruginosa
[2] = test system: MDR A. baumannii clinical isolates; assay: as above; assay type: cell-based, Acinetobacter baumannii; details: Acinetobacter baumannii
[3] = test system: MDR E. coli clinical isolates; assay: as above; assay type: cell-based, Escherichia coli; details: Escherichia coli, read-out: MIC
[4] = test system: MDR K. pneumoniae clinical isolates; assay: as above; assay type: cell-based, Klebsiella pneumoniae; details: Klebsiella pneumoniae, read-out: MIC
[5] = test system: MDR E. cloacae clinical isolates; assay: as above; assay type: cell-based, Enterobacter cloacae; details: Enterobacter cloacae, read-out: MIC
[6] = test system: wild-type E. coli ATCC 25922; assay: microbe, parasite or virus in culture; assay type: cell-based, Escherichia coli; details: ATCC 25922
Experimental: The adjuvant activities of dUSTBβPs were evaluated using checkerboard assay as previously described ([Berry et al., 2019]). Overnight-grown bacterial culture diluted in saline to 0.5 McFarland turbidity was successively diluted 1:50 in MHB to achieve a final concentration of 5 × 10^5 CFU/mL for inoculation. The antibiotic and adjuvant were serially diluted 2-fold along the x-axis and y-axis, respectively, resulting in varying concentrations of both agents in each well. Subsequently, the 96-well plate was incubated with equal volumes of bacterial inoculum at 37°C for 18 h. Confirmation of turbidity was done using an EMax Plus microplate reader (Molecular Devices, United States) at a wavelength of 590 nm. Wells comprising MHB alone or in the presence of bacterial cells were used as negative or positive controls, respectively. Fractional inhibitory concentration index (FICI) is determined by adding the FICs of both antibiotic and adjuvant. The FIC of the antibiotic is calculated by dividing the MIC of the antibiotic in the presence of the adjuvant by the MIC of the antibiotic alone. Similarly, the FIC of the adjuvant is calculated by dividing the MIC of the adjuvant in the presence of the antibiotic by the MIC of the adjuvant alone. FICI ≤ 0.5, 0.5 < x ≤ 4, and >4 were deemed synergistic, additive, and antagonistic, respectively ([Meletiadis et al., 2010]).

MIC ([1]; 259-96196, read-out: MIC) [µg/mL]	MIC ([1]; 262-101856, read-out: MIC) [µg/mL]	MIC ([1]; 264-104354, read-out: MIC) [µg/mL]	MIC ([1]; 114228, read-out: MIC) [µg/mL]	MIC ([2]; AB031, read-out: MIC) [µg/mL]	MIC ([3]; 94393 (mcr-1 +)) [µg/mL]	MIC ([3]; 94474 (mcr-1 +)) [µg/mL]	MIC [3]; 107115 [µg/mL]	MIC [4]; 113250 [µg/mL]	MIC [4]; 113254 [µg/mL]	MIC [4]; 116381 [µg/mL]	MIC [5]; 117029 [µg/mL]	MIC [5]; 118564 [µg/mL]	MIC [5]; 121187 [µg/mL]	MIC ([1]; 91433, read-out: MIC) [µg/mL]	MIC ([2]; 92247, read-out: MIC) [µg/mL]	MIC ([2]; AB027, read-out: MIC) [µg/mL]	MIC ([2]; LAC-4, read-out: MIC) [µg/mL]	Compound	other results
> 128	> 128	> 128		> 128	1 (≈ 2.2 µM)	4 (≈ 8.8 µM)	> 128	1 (≈ 2.2 µM)	1 (≈ 2.2 µM)	> 128	> 128	> 128	32 (≈ 70.4 µM)	> 128	128 (≈ 282 µM)	> 128		Cc1nnc(SCC2=C(C(=O)O)N3C(=O)[C@@H](NC(=O)Cn4cnnn4)[C@H]3SC2)s1 [CFZ, cefazolin]	
																		O=C(O)c1cn(C2CC2)c2cc(N3CCNCC3)c(F)cc2c1=O [Ciprofloxacin]	MICcombo ([6]; antibiotic with dUSTBβP 3 at 8 μg/mL): 0.002 µg/mL; MIC ([6]; Escherichia coli, ATCC25922, 18 h, antibiotic alone (Supplementary Table 7), read-out: MICantibiotic): 0.008 µg/mL
32 (≈ 54.6 µM)	32 (≈ 54.6 µM)	32 (≈ 54.6 µM)		8 (≈ 13.7 µM)	0.25 (≈ 0.427 µM)	1 (≈ 1.71 µM)	0.25 (≈ 0.427 µM)			1 (≈ 1.71 µM)	0.5 (≈ 0.854 µM)			32 (≈ 54.6 µM)	0.25 (≈ 0.427 µM)	4 (≈ 6.83 µM)	< 4	CN(C)c1cc(NC(=O)CNC(C)(C)C)c(O)c2c1C[C@H]1C[C@H]3[C@H](N(C)C)C(O)=C(C(N)=O)C(=O)[C@@]3(O)C(O)=C1C2=O [TGC, tigecycline]	
1020 (≈ 2670 µM)	32 (≈ 83.4 µM)	64 (≈ 167 µM)	8 (≈ 20.9 µM)	1 (≈ 2.61 µM)	≤ 0.03	≤ 0.03	32 (≈ 83.4 µM)	≤ 0.03	≤ 0.03	≤ 0.03	≤ 0.03	0.12 (≈ 0.313 µM)	0.06 (≈ 0.156 µM)	16 (≈ 41.7 µM)	4 (≈ 10.4 µM)	16 (≈ 41.7 µM)	< 1	C[C@@H](O)[C@H]1C(=O)N2C(C(=O)O)=C(S[C@@H]3CN[C@H](C(=O)N(C)C)C3)[C@H](C)[C@H]12 [MER, meropenem]	
> 64	32 (≈ 66.6 µM)	32 (≈ 66.6 µM)		4 (≈ 8.32 µM)	≤ 0.25	≤ 0.25	> 64	1 (≈ 2.08 µM)	1 (≈ 2.08 µM)	16 (≈ 33.3 µM)	≤ 0.25	0.25 (≈ 0.52 µM)	0.25 (≈ 0.52 µM)	16 (≈ 33.3 µM)	4 (≈ 8.32 µM)			CO/N=C(\C(=O)N[C@@H]1C(=O)N2C(C(=O)[O-])=C(C[N+]3(C)CCCC3)CS[C@H]12)c1csc(N)n1 [CPM, cefepime]	
> 64	> 64	8 (≈ 13.7 µM)		2 (≈ 3.42 µM)	2 (≈ 3.42 µM)	2 (≈ 3.42 µM)	2 (≈ 3.42 µM)	≤ 1	≤ 1	≤ 1	2 (≈ 3.42 µM)	2 (≈ 3.42 µM)	1 (≈ 1.71 µM)	> 32	< 1	> 64	4 (≈ 6.83 µM)	NCC[C@H](O)C(=O)N[C@@H]1C[C@H](N)[C@@H](O[C@H]2O[C@H](CN)[C@@H](O)[C@H](O)[C@H]2O)[C@H](O)[C@H]1O[C@H]1O[C@H](CO)[C@@H](O)[C@H](N)[C@H]1O [AMK, amikacin]	
> 32	> 32	> 32			4 (≈ 9.36 µM)	16 (≈ 37.4 µM)	> 32	1 (≈ 2.34 µM)	1 (≈ 2.34 µM)	16 (≈ 37.4 µM)	> 32	> 32	> 32	> 32	32 (≈ 74.9 µM)			CO[C@@]1(NC(=O)Cc2cccs2)C(=O)N2C(C(=O)O)=C(COC(N)=O)CS[C@@H]21 [FOX, cefoxitin]	
8 (≈ 14.3 µM)	8 (≈ 14.3 µM)	8 (≈ 14.3 µM)	8 (≈ 14.3 µM)	0.25 (≈ 0.448 µM)	0.5 (≈ 0.895 µM)	1 (≈ 1.79 µM)	0.125 (≈ 0.224 µM)	1 (≈ 1.79 µM)	0.5 (≈ 0.895 µM)	0.5 (≈ 0.895 µM)	0.5 (≈ 0.895 µM)			16 (≈ 28.6 µM)		0.5 (≈ 0.895 µM)	0.06 (≈ 0.107 µM)	CN(C)[C@@H]1C(O)=C(C(N)=O)C(=O)[C@@]2(O)C(O)=C3C(=O)c4c(O)c(NC(=O)CN5CCCC5)cc(F)c4C[C@H]3C[C@@H]12 [ERC, eravacycline]	

Compound	MIC ([1]; 259-96196, read-out: MIC) [µg/mL]	MIC ([1]; 262-101856, read-out: MIC) [µg/mL]	MIC ([1]; 264-104354, read-out: MIC) [µg/mL]	MIC ([1]; 114228, read-out: MIC) [µg/mL]	MIC ([2]; AB031, read-out: MIC) [µg/mL]	MIC ([3]; 94393 (mcr-1 +)) [µg/mL]	MIC ([3]; 94474 (mcr-1 +)) [µg/mL]	MIC [3]; 107115 [µg/mL]	MIC [4]; 113250 [µg/mL]	MIC [4]; 113254 [µg/mL]	MIC [4]; 116381 [µg/mL]	MIC [5]; 117029 [µg/mL]	MIC [5]; 118564 [µg/mL]	MIC [5]; 121187 [µg/mL]	MIC ([1]; 91433, read-out: MIC) [µg/mL]	MIC ([2]; 92247, read-out: MIC) [µg/mL]	MIC ([2]; AB027, read-out: MIC) [µg/mL]	MIC ([2]; LAC-4, read-out: MIC) [µg/mL]	other results
CO/N=C(\C(=O)N[C@@H]1C(=O)N2C(C(=O)O)=C(COC(C)=O)CS[C@H]12)c1csc(N)n1 [CTX, cefotaxime]	2050 (≈ 4500 µM)	128 (≈ 281 µM)	2050 (≈ 4500 µM)	128 (≈ 281 µM)	16 (≈ 35.1 µM)														MIC [1]; 91433: 1020 µg/mL (≈ 2250 µM); MIC [2]: > 256 µg/mL
